From patent US20090182135A1, “Amino modifiers” (priority 2007, published 2009)
Like-named read-outs stand apart in the source and are kept apart here.

Assays:
[1] = commercially available trityl protecting groups, values stated without experiment; cited from earlier work
[2] = Stability of the amino modifier reagent in acetonitrile; type: physicochemical; conditions: room temperature
Protocol: The sulfoxy derivative survives conditions of polynucleotide synthesis and can either be cleaved with standard deblock solution, or left intact for an HPLC purification. […] UV quantification for release of the new protecting group is possible. Extinction coefficients (L/(mol×cm) shown in the Scheme above were measured in 2% TFA/DCM.

[3] = pKR+ determination of trityl alcohols by UV spectrophotometry in aqueous sulphuric acid solutions (Deno acidity function HR); type: physicochemical; conditions: for pKR+ (477 nm): absorbance at 477 nm
Source text: The physico-chemical properties of trityl cations have been thoroughly investigated. In 1955 Deno et al reported an empirical Acidity Function HR which allows the comparison of the stability of different trityl cations (N. C. Deno, J. J. Jaruzelski and A. Schriesheim, J. Am. Chem. Soc. 1955, 77, 3044). Using the acidity function and the methods described by Deno it is possible to evaluate the pKR+ parameter for trityl alcohol derivatives, which is a direct indication of the stability of the corresponding trityl cations.
Once the acidity function HR for a particular acidic solution is known, the pKR+ of a triarylcarbinol dissolved in that acidic solution can be calculated in a straightforward manner once the ratio [R^+]/[ROH] has been experimentally determined. Therefore, in order to determine pKR+ values in acidic solutions of known HR, the ratio [R^+]/[ROH] must be established or, what is the equivalent, the degree of ionization of the triarylcarbinol.
The [R^+]/[ROH] ratio can be determined by spectrophotometic means. In particular, for trityl derivatives, UV spectrophotometry is useful since trityl cations and their parent molecules show completely different absorption spectra in the UV region.
In general, the experimental procedure for determining pKR+ for a trityl alcohol is summarised as follows. A solution of the triaryl alcohol in question in acetic acid is prepared in a way that the final concentration of the solutions to be analysed by UV spectrometry are in the range of 10^−5 to 10^−7 molar. A constant amount of the acetic acid solution so prepared is then added to the solutions of sulphuric acid (for instance, using a micropipette) to carry out the UV spectrometry experiments. It is recommended that the values of E are measured at the λmax of the trityl cation.
Starting from the most concentrated sulphuric acid solutions, samples are prepared until it is observed that the absorbance of the samples starts to decay. In the range of concentrations prior to the decay of absorbance, the triaryl alcohol is dissolved in a sufficiently concentrated sulphuric to completely ionise it. Therefore, ε=εR. In the region of sulphuric acid concentrations in which the absorbance of the samples decays, a series of values for ε are collected.
Finally, a concentration of sulphuric acid is reached in which the absorbance at λmax is negligible (or the alcohol starts to precipitate). This indicates the end of the experiment and values for the [R^+]/[ROH] for a series of given HR are available.
The pKR+ can be determined using the equation
Using UV spectrometry, the λmax of the trityl cation was determined to be approximately 477 nm, as illustrated in FIG. 1. Absorbance values were recorded at this wavelength for different concentrations of sulphuric acid. […]

4,4′-dimethoxytrityl [DMTr]
pKR+ [1]: −1.24

COc1ccc(C(NCCCCCCOP(OCCC#N)N(C(C)C)C(C)C)(c2ccc(OC)cc2)c2ccc([S+](C)[O-])cc2)cc1 (stereo not shown) [DMS(O)MTr amino modifier, 6-(4,4′-dimethoxy-4″-(methylsulfinyl)tritylamino)hexylolxy-(2-cyanoethoxy) diisopropylaminophosphine]
stability of the reagent in solution [2]: stable in acetonitrile at room temperature for at least two weeks

COc1ccc(C(O)(c2ccc(C)cc2)c2ccc(C)cc2)cc1 [MDMeTrOH, 4-methoxy-4′,4″-dimethyltrityl alcohol]
pKR+ (477 nm) ([3]; H2SO4 20%): −2.7
pKR+ (477 nm) ([3]; H2SO4 25%): −2.6
pKR+ (477 nm) ([3]; H2SO4 30%): −2.5
pKR+ ([3]; overall value for the trityl alcohol, UV at λmax of the trityl cation in sulphuric acid solutions): −2.6

monomethoxytrityl [MMTr]
pKR+ [1]: −3.40
